Values of other authors, collected in patent US10980718B2, “Personal care compositions comprising poorly soluble compounds” (Conopco, Inc., priority 2016, dated 2021).

N[C@@H](CSSC[C@H](N)C(=O)O)C(=O)O [cystine]
solubility of cystine in aqueous solutions by pH (aqueous solutions with pH less than 2 or pH above 8): more soluble
natural solubility limit of cystine (room temperature and neutral pH): 0.01 wt %
